Where two headings read alike, the source gives them in different places.
Experiments:
[1] = tested on: gel-filtered platelets (thrombin-induced aggregation); assay: In vitro inhibition of thrombin-induced gel-filtered platelet aggregation assay; type: cell-based; conditions: platelet aggregation stimulated by thrombin, gel-filtered human platelets, read-out: GFP Aggr. IC50
Procedure: In Vitro Inhibition Of Thrombin-induced Gel-filtered Platelet Aggregation Assay
The percentage of platelet aggregation is calculated as an increase in light transmission of compound-treated platelet concentrate vs. control-treated platelet concentrate. Human blood is obtained from drug free, normal donors in tubes containing 0.13M sodium citrate. Platelet rich plasma (PRP) is collected by centrifugation of whole blood at 200×g for 10 min at 25° C. The PRP (5 mL) is gel filtered through Sepharose 2B (bed volume 50 mL), and the platelet count is adjusted to 2×10^7 platelets per sample. The following constituents are added to a siliconized cuvette: concentrated platelet filtrate and Tyrode's buffer (0.14M NaCl, 0.0027M KCl, 0.012M NaHCO3, 0.76 mM Na2HPO4, 0.0055M glucose, 2 mg/mL BSA and 5.0 mM HEPES @ pH 7.4) in an amount equal to 350 μL, 50 μL of 20 mM calcium and 50 μL of the test compound. Aggregation is monitored in a BIODATA aggregometer for the 3 min following the addition of agonist (thrombin 50 μL of 1 unit/mL).

[2] = target: T1, thrombin receptor (PAR-1) (Homo sapiens, UniProt P25116); assay: In vitro thrombin receptor binding assay (CHRF membranes, tritiated 721-40)
T1 construct: CHRF membranes (Jones, Biochim. Biophys. Acta 1992, 1136, 272) are thawed from −70° C; endogenous in cells; host or cells: CHRF cell membranes
T1 sequence (P25116 22-425): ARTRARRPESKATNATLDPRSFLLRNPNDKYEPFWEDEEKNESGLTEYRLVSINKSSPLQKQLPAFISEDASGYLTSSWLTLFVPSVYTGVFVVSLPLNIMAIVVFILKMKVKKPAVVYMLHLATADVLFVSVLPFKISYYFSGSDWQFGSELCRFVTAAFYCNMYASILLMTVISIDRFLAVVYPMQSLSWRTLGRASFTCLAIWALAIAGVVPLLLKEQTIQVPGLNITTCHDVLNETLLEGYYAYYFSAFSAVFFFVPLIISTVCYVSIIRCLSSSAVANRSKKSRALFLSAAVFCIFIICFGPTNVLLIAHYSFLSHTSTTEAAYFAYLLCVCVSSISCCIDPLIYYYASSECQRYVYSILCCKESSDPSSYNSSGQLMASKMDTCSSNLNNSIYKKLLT
Procedure: In Vitro Thrombin Receptor Binding Assay
CHRF membranes (Jones, Biochim. Biophys. Acta 1992, 1136, 272) are thawed from −70° C., centrifuged at maximum speed for 5 min, washed twice with binding buffer (50 mM HEPES containing 5 mM MgCl2 and 0.1% BSA), and re-suspended in binding buffer ([…]). 100 μL of membranes are added to the 24-Wallac plates and delivered to the Tomtech apparatus. In a typical experiment, 6 μL of samples (from a 125 μg/mL intermediary plate, 20% DMSO) and 44 μL buffer are delivered to the plates (final conc. of compounds is 3.7 μg/mL, 0.6% DMSO). Similarly, 6 μL 20% DMSO and 44 μL buffer are delivered to both column 1 (NSB) and column 12 (TB). 10 μL Ser-pFPhe-Har-Leu-Har-Lys-Tyr-NH2 (721-40; 500 μM in deionized water) is added to column 1. 50 μL tritiated 721-40 (specific activity 46 Ci/mmol) is added to all the wells. The plates are mixed well for 20 seconds, incubated for 30 min, and then harvested with 10 mM HEPES/138 mM NaCl using the Skatron harvester. The filters (GF/C Brandel FPXLR 296) are presoaked 3 h in 0.5% polyethylenimine in HEPES/0.1M N-acetylglucosamine) are set in saran wrap and dried for 3 min in the microwave, and placed in sample bags (Wallac 1450-432). 4.5 mL scintillation fluid (Wallac, Betaplate Scint 1205-440) is added. The bags are sealed, placed in filter cassettes (Wallac 1450-104), and analyzed on the microbeta counter.

[3] = Table 1, read-out: Recptr Bdg. IC50
[4] = Table 2, read-out: Recptr Bdg. IC50

| Compound | IC50 ([1]; Table 1) [nM] | IC50 [2, 3] [nM] | IC50 ([1]; Table 2) [nM] | IC50 [2, 4] [nM] |
| --- | --- | --- | --- | --- |
| NCCN(CC(=O)NCc1ccccc1)C(=O)[C@H](Cc1ccc(F)c(F)c1)NC(=O)Nc1ccc2c(CN3CCCC3)nn(Cc3c(Cl)cccc3Cl)c2c1 [Compound 1] | 1300 | 500 |  |  |
| NCCN(CC(=O)NCc1ccccc1)C(=O)[C@H](Cc1ccc(F)c(F)c1)NC(=O)Nc1ccc2c(CN3CCCC3)cn(Cc3c(Cl)cccc3Cl)c2c1 [Compound 2] | 1700 | 300 |  |  |
| NCCCCN(CC(=O)NCc1ccccc1)C(=O)[C@H](Cc1ccc(F)c(F)c1)NC(=O)Nc1ccc2c(CN3CCCC3)nn(Cc3c(Cl)cccc3Cl)c2c1 [Compound 3] | 260 | 300 |  |  |
| NCCCCN(CC(=O)NCc1ccccc1)C(=O)[C@H](Cc1ccc(F)c(F)c1)NC(=O)Nc1ccc2c(CN3CCCC3)cn(Cc3c(Cl)cccc3Cl)c2c1 [Compound 4] | 260 | 220 |  |  |
| O=C(CN(Cc1ccccc1)C(=O)[C@H](Cc1ccc(F)c(F)c1)NC(=O)Nc1ccc2c(CN3CCCC3)cn(Cc3c(Cl)cccc3Cl)c2c1)NCc1ccccc1 [Compound 5] | 22000 | 380 |  |  |
| NCCCN(Cc1cccs1)C(=O)[C@H](Cc1ccc(F)c(F)c1)NC(=O)Nc1ccc2c(CN3CCCC3)cn(Cc3c(Cl)cccc3Cl)c2c1 [Compound 6, Benzene Propanamide, N-(3-aminopropyl)-N-(2-thiophenemethyl)-α-[[[[[1-(2,6-dichlorophenyl)methyl]-3-(1-pyrrolidinylmethyl)-1H-indol-6-yl]amino]carbonyl]amino]-3,4-difluoro-, (αS)-] | 600 | 10300 |  |  |
| N=C(N)NCCC[C@H](NC(=O)CN(CCCCCN)C(=O)Nc1ccc2c(CN3CCCC3)cn(Cc3c(Cl)cccc3Cl)c2c1)C(=O)NCc1ccccc1 [Compound 13] |  |  | 1000 | > 100000 |
| N=C(N)NCCC[C@H](NC(=O)CN(Cc1ccc(Cl)cc1)C(=O)Nc1ccc2c(CN3CCCC3)cn(Cc3c(Cl)cccc3Cl)c2c1)C(=O)NCc1ccccc1 [Compound 14] |  |  | 6300 | 6900 |
| N=C(N)NCCC[C@H](NC(=O)CN(Cc1ccc(F)cc1)C(=O)Nc1ccc2c(CN3CCCC3)cn(Cc3c(Cl)cccc3Cl)c2c1)C(=O)NCc1ccccc1 [Compound 15, N-4-Fluorophenylmethyl-N-{[1-(2,6-dichlorophenyl)methyl-3-(1-pyrrolidinylmethyl)-1H-indol-6-yl]aminocarbonyl}-clycinyl-L-arginin-N-benzyl-amide] |  |  | 2100 | 8100 |
